Experimental data as given in US20110183978A1, “Phenylpyri(mi)dinylazoles” (Bayer CropScience AG, priority 2009, published 2011).
Where two headings read alike, the source gives them in different places.

Assays:
Sphaerotheca fuliginea [1] = assay: Example L: in vivo test on Sphaerotheca fuliginea (powdery mildew on cucumber/protective); conditions: Podosphaera fuliginea, 168 h, cucumber, protective, assessment 7 days after inoculation, read-out: % Wirkungsgrad
Outline: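 Young cucumber plants sprayed at stated dosage with compound in DMF/alkylaryl polyglycol ether emulsifier diluted in water; inoculated with S. fuliginea spores one day later. Kept in greenhouse at 70% relative humidity, 23° C; protective activity assessed 7 days after inoculation.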

Alternaria solani = assay: Example M: in vivo test on Alternaria solani (leaf blotch disease/tomato/protective); conditions: 168 h, tomato, protective, 500 ppm active substance, assessed 7 days after inoculation, read-out: % Wirkungsgrad (activity level)
Outline: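 Protective test: young tomato plants sprayed with active substance (in DMF with alkylaryl polyglycol ether emulsifier, diluted in water) at the stated dosage, then inoculated with Alternaria solani. Disease assessed 7 days after inoculation.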

Fusarium proliferatum = assay: Example I: production of fumonisin FB1 by Fusarium proliferatum (microtitre plates); type: cell-based; conditions: 120 h
Sphaerotheca fuliginea [2] = assay: Example D: in vivo test on Sphaerotheca fuliginea (powdery mildew on cucumber); conditions: Podosphaera fuliginea, 288 h, cucumber plants sprayed 24 hours before inoculation, scored after 12 days, read-out: % Wirkungsgrad
Method: In Vivo Test on Sphaerotheca Fuliginea (Powdery Mildew on Cucumber) An aqueous suspension of the active substance was prepared by homogenization of a mixture of acetone/Tween/dimethyl sulphoxide and subsequent dilution with water to the desired concentration. Cucumber plants (variety: Vert petit de Paris) are sown in cultivation dishes on a peat-pozzolanic earth substrate (50/50) at 20/23° C. and at the cotyledon stage Z10 sprayed with the aqueous suspension described above. As a control, plants are sprayed with an aqueous solution with no active substance. After 24 hours the plants are inoculated by spraying with an aqueous suspension of Sphaerotheca fuliginea spores (100,000 spores per ml). The spores are derived from a contaminated plant. The inoculated cucumber plants are incubated at ca. 20/25° C. at a relative atmospheric humidity of 60/70%. After 12 days they are scored in comparison with the control plants.

Peronospora parasitica = assay: Example A: in vivo test on Peronospora parasitica (downy mildew on white cabbage); conditions: Hyaloperonospora parasitica, 120 h, cabbage plants sprayed 24 hours before inoculation, scored after 5 days, read-out: % Wirkungsgrad
Method: In Vivo Test on Peronospora Parasitica (Downy Mildew on White Cabbage) An aqueous suspension of the active substance was prepared by homogenization of a mixture of acetone/Tween (dispersant)/dimethyl sulphoxide (DMSO) and subsequent dilution with water to the desired concentration. Cabbage plants (variety: Eminence) are sown in cultivation dishes on a peat-pozzolanic earth substrate (50/50) at 18-20° C. and sprayed at the cotyledon stage with the aqueous suspension described above. As a control, plants are sprayed with an aqueous solution with no active substance. After 24 hours, the plants are inoculated by spraying with an aqueous suspension of Peronospora parasitica spores (50,000 spores per ml). The spores are derived from infected plants. The inoculated cabbage plants are incubated for 5 days at ca. 20° C. in a moist atmosphere. After 5 days, they are scored in comparison with the control plants.

Fusarium graminearum = assay: microbe, parasite or virus in culture; type: cell-based
Venturia inaequalis = assay: Example O: in vivo test on Venturia inaequalis (apple scab/protective); conditions: 240 h, protective, assessment 10 days after inoculation, read-out: % Wirkungsgrad
Method: (§1) Emulsifier: 1 part by weight alkylaryl polyglycol ethers For the preparation of a suitable active substance preparation, 1 part by weight of active substance is mixed with the stated quantities of solvent and emulsifier and the concentrate is diluted to the desired concentration with water. For the testing for protective activity, young plants are sprayed with the active substance preparation at the stated application dosage. […] 10 days after the inoculation, the assessment takes place.

Botrytis cinerea = assay: Example P: in vivo test on Botrytis cinerea (gray mould on bean/protective); conditions: 48 h, bean, protective, 250 ppm active substance, assessed 2 days after inoculation, read-out: % Wirkungsgrad (activity level)
Method: as §1, with “dosage. After drying of the spray coating, 2 small pieces of agar with Botrytis cinerea growing on them are laid on every leaf.” for “dosage.”, “2” for “10”, “size of the infection blotches on the leaves is assessed.” for “assessment takes place.”

Plasmopara viticola = assay: Example N: in vivo test on Plasmopara viticola (downy mildew, vine/protective); conditions: 144 h, vine, protective, assessment 6 days after inoculation, read-out: % Wirkungsgrad
Method: as §1, with “The plants are then moistened and placed in an incubation cabin for 1 day. 6” for “10”

[3] = Fusarium proliferatum growth, OD 620, 5 days, read-out: % Inhibition des Pilzwachstums bei 50 μM
[4] = Fusarium proliferatum, 5 days at 20° C., HPLC-MS/MS, read-out: % Inhibition der FB1 produktion bei 50 μM
[5] = LogPA (logP of the stated pure compound or, in a mixture, of the main isomer, 1-substituted 3-aryl-1H-pyrazole)
[6] = 72 h, read-out: % Inhibition des Pilzwachstums bei 50 μM
[7] = 168 h, read-out: % Inhibition der DON/AcDON produktion bei 50 μM

SMILES	pest or weed control at 500 ppm (Sphaerotheca fuliginea [1]) [%]	pest or weed control at 500 ppm (Alternaria solani) [%]	inhibition at 50 µM (Fusarium proliferatum; [3]) [%]	inhibition at 50 µM (Fusarium proliferatum; [4]) [%]	pest or weed control at 500 ppm (Sphaerotheca fuliginea [2]) [%]	chromatographic logP (physchem; [5])	pest or weed control at 500 ppm (Peronospora parasitica) [%]	inhibition at 50 µM (Fusarium graminearum; [6]) [%]	inhibition at 50 µM (Fusarium graminearum; [7]) [%]	pest or weed control at 100 ppm (Venturia inaequalis) [%]	pest or weed control at 250 ppm (Botrytis cinerea) [%]	chromatographic logP (physchem; LogPA)	pest or weed control at 100 ppm (Plasmopara viticola) [%]
Fc1ccc(-c2nn(C3CCCCO3)cc2-c2ccncc2)cc1 (stereo not drawn) [Compound 9]	90	89	40	96	75	1.29	–	–	–	–	–	–	–
CC(C)(C)Cn1cc(-c2ccncc2)c(-c2c(F)cccc2F)n1 [Compound 11]	73	80	–	–	93	1.84	–	–	–	–	–	–	–
CC(C)=CCn1ncc(-c2ccncc2)c1-c1c(F)cccc1F [Compound 22]	–	–	–	–	71	1.72	97	–	–	–	–	–	–
COCC(=O)Nc1cc(-c2cn(C3CCCCO3)nc2-c2ccc(F)cc2)ccn1 (stereo not drawn) [Compound 23]	–	–	73	100	–	2.64	100	–	–	–	–	–	–
Clc1cccc(-c2nn(C3CCCCO3)cc2-c2ccncc2)c1 (stereo not drawn) [Compound 28]	–	–	–	–	–	1.55	97	–	–	–	–	–	–
Clc1cccc(-c2nn(C3CCCCO3)cc2-c2ccnc3[nH]ccc23)c1 (stereo not drawn) [Compound 32]	–	–	–	–	–	2.46	79	–	–	–	–	–	–
FC1(F)Oc2cccc(-c3c(-c4ccncc4)cnn3C3CCCCO3)c2O1 (stereo not drawn) [Compound 33]	–	–	99	99	71	1.64	93	–	–	–	–	–	–
Cc1cc(F)ccc1-c1c(-c2ccncc2)cnn1C1CCCCO1 (stereo not drawn) [Compound 37]	–	–	–	–	78	1.4	–	13	80	–	–	–	–
CC(C)(C)C(=O)Nc1cc(-c2cn(C3CCCCO3)nc2-c2ccc(F)cc2)ccn1 (stereo not drawn) [Compound 41]	–	–	56	100	98	3.19	72	–	–	–	–	–	–
CC(C)n1cc(-c2ccnc(N)c2)c(-c2ccc(F)cc2)n1 [Compound 46]	–	–	–	–	81	1.18	94	–	–	–	–	–	–
COC(=O)C(C)n1cc(-c2ccncc2)c(-c2ccc(F)cc2)n1 (stereo not drawn) [Compound 107]	–	–	–	–	91	1.2	–	–	–	–	–	–	–
Fc1ccc(-c2nn(Cc3cnc(Cl)s3)cc2-c2ccncc2)cc1 [Compound 110]	–	–	–	–	79	1.54	–	–	–	–	–	–	–
COCCOCCn1cc(-c2ccncc2)c(-c2ccc(F)cc2)n1 [Compound 134]	–	100	–	–	85	1.04	94	–	–	–	–	–	–
Fc1ccc(-c2nn(Cc3cccc(Oc4ccccc4)c3)cc2-c2ccncc2)cc1 [Compound 138]	–	–	–	–	77	2.36	–	–	–	–	–	–	–
CC(C)n1cc(-c2ccnc(NC(=O)C3CCC3)c2)c(-c2ccc(F)cc2)n1 [Compound 156]	94	94	93	100	–	2.57	–	99	81	91	98	–	–
CC(C)Cn1cc(-c2ccnc(NC(=O)C(C)C)n2)c(-c2ccc(F)cc2)n1 [Compound 189]	–	95	0	90	–	–	–	–	–	84	93	2.92	–
CCNC(=O)Nc1cc(-c2cn(C(C)C)nc2-c2ccc(F)cc2)ccn1 [Compound 211]	93	70	–	–	–	–	–	16	99	92	100	2.02	–
COCC(=O)Nc1cc(-c2cn(CCCl)nc2-c2ccc(F)cc2)ccn1 [Compound 220]	97	95	99	100	–	–	–	100	99	96	100	2.36	–
CC(C)C(=O)Nc1cc(-c2cn(CCCl)nc2-c2ccc(F)cc2)ccn1 [Compound 222]	100	90	96	100	–	–	–	99	82	95	85	2.33	–
O=C(Nc1cc(-c2cn(CC(F)F)nc2-c2ccc(F)cc2)ccn1)c1cccs1 [Compound 236]	86	94	–	–	–	–	–	–	–	94	100	2.82	76
O=C(Nc1cc(-c2cn(CC(F)F)nc2-c2ccc(F)cc2)ccn1)c1ccccc1 [Compound 237]	88	100	–	–	–	–	–	–	–	95	100	2.9	84
CCC(C)C(=O)Nc1cc(-c2cn(CC(F)F)nc2-c2ccc(F)cc2)ccn1 (stereo not drawn) [Compound 239]	95	100	–	–	–	–	–	–	–	98	–	2.62	88
CCOC(=O)Nc1cc(-c2cn(C(C)CC)nc2-c2ccc(F)cc2)ccn1 (stereo not drawn) [Compound 268]	100	80	–	–	–	–	–	32	90	98	100	3.08	–
CC(C)On1cc(-c2ccnc(NC(=O)C3CC3)c2)c(-c2ccc(F)cc2)n1 [Compound 271]	79	89	–	–	–	–	–	71	99	81	93	2.73	–
CC(C)On1cc(-c2ccnc(NC(=O)C(C)C)c2)c(-c2ccc(F)cc2)n1 [Compound 272]	94	94	–	–	–	–	–	33	99	89	100	3.01	–
